What was measured:
MOLT-4 cells = assay: MOLT-4 cell viability, MTT assay; type: cell-based; conditions: Homo sapiens, MOLT-4, 48 h, 48 h exposure
Method in brief: (§1)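 Viability read by MTT reduction (OD 540 nm after overnight SDS/HCl lysis) after 48 h compound treatment of cells in RPMI 1640/10% FBS. Triplicates at nine concentrations, 3.16-fold apart; four-parameter curve fitting yields IC50.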

BCLXL = BCLXL (Homo sapiens, UniProt Q07817, V10N/V9A); assay: Fluorescence polarisation assay (PUMA-based probe displacement); type: binding; further: 20 nM protein, 10 nM fluorescent probe
H146 cells = assay: H146 cell viability, MTT assay; type: cell-based; conditions: Homo sapiens, NCI-H146, 48 h, 48 h exposure
Method in brief: as §1

Chain of BCLXL (Q07817 with tags, fused parts or gaps V9A/V10N): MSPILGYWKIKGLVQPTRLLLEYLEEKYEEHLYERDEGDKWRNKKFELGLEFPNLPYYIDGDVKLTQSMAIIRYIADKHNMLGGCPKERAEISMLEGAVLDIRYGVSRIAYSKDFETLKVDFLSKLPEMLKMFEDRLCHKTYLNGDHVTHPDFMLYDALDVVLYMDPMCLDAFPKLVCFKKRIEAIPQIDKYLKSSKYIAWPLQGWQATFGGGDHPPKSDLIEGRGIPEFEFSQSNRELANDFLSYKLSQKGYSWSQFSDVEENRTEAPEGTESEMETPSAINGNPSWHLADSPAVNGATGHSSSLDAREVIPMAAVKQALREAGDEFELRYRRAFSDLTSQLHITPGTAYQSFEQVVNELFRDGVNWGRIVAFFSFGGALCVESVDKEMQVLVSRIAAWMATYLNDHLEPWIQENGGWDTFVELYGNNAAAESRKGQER

SMILES | IC50 (MOLT-4 cells) [nM] | Ki (BCLXL) [nM] | IC50 (H146 cells) [nM]
COCCCN(c1cc(C)c(Nc2nc3ccccc3s2)nn1)c1nc(C(=O)O)cs1 [Example 47, 2-({6-[(1,3-Benzothiazol-2-yl)amino]-5-methylpyridazin-3-yl}(3-methoxypropyl)amino)-1,3-thiazole-4-carboxylic acid] | > 15000 | 23 | ≥ 9620
Cc1cc(N(CCCN2CCOCC2)c2nc(C(=O)O)cs2)nnc1Nc1nc2ccccc2s1 [Example 44, 2-({6-[(1,3-Benzothiazol-2-yl)amino]-5-methylpyridazin-3-yl}[3-(morpholin-4-yl)propyl]amino)-1,3-thiazole-4-carboxylic acid] | > 15000 | 69 | > 15000
Cc1cc(N(CCCO)c2nc(C(=O)O)cs2)nnc1Nc1nc2ccccc2s1 [Example 49, 2-({6-[(1,3-Benzothiazol-2-yl)amino]-5-methylpyridazin-3-yl}(3-hydroxypropyl)amino)-1,3-thiazole-4-carboxylic acid] | > 15000 | 8.1 | > 15000
Cc1cc(N(C)c2nc(C(=O)O)c(C3CCC3)s2)nnc1Nc1nc2ccccc2s1 [Example 78, 2-({6-[(1,3-Benzothiazol-2-yl)amino]-5-methylpyridazin-3-yl}(methyl)amino)-5-cyclobutyl-1,3-thiazole-4-carboxylic acid] | > 15000 | 110 | > 15000
Cc1cc(N(C)c2nc(C(=O)O)c(C3CCN(CC(C)C)CC3)s2)nnc1Nc1nc2ccccc2s1 [Example 87, 2-({6-[(1,3-Benzothiazol-2-yl)amino]-5-methylpyridazin-3-yl}(methyl)amino)-5-[1-(2-methylpropyl)piperidin-4-yl]-1,3-thiazole-4-carboxylic acid] | > 15000 | 530 | > 15000
Cc1cc(N(C)c2nc(C(=O)O)c(CCCOc3ccc(C#CCN(C)C(=O)OC(C)(C)C)cc3F)s2)nnc1Nc1nc2ccccc2s1 [Example 82, 2-({6-[(1,3-Benzothiazol-2-yl)amino]-5-methylpyridazin-3-yl}(methyl)amino)-5-{3-[4-(3-{[(tert-butoxy)carbonyl](methyl)amino}prop-1-yn-1-yl)-2-fluorophenoxy]propyl}-1,3-thiazole-4-carboxylic acid] | 68.3 | < 1 | 98.8
COCCN(c1cc(C)c(Nc2nc3ccccc3s2)nn1)c1nc(C(=O)O)cs1 [Example 39, 2-({6-[(1,3-Benzothiazol-2-yl)amino]-5-methylpyridazin-3-yl}(2-methoxyethyl)amino)-1,3-thiazole-4-carboxylic acid] | > 15000 | 54 | > 15000
Cc1cc(N(C)c2nc(C(=O)O)c(N3CC[C@H](OCc4ccccc4)C3)s2)nnc1Nc1nc2ccccc2s1 [Example 70, 2-({6-[(1,3-Benzothiazol-2-yl)amino]-5-methylpyridazin-3-yl}(methyl)amino)-5-[(3S)-3-(benzyloxy)pyrrolidin-1-yl]-1,3-thiazole-4-carboxylic acid] | > 41600 | 30 | > 15000
Cc1cc(N(C)c2nc(C(=O)O)c(C3CCNCC3)s2)nnc1Nc1nc2ccccc2s1 [Example 83, 2-({6-[(1,3-Benzothiazol-2-yl)amino]-5-methylpyridazin-3-yl}(methyl)amino)-5-(piperidin-4-yl)-1,3-thiazole-4-carboxylic acid] | > 15000 | 320 | > 15000

More lines, now with the values ahead:

IC50 (MOLT-4 cells) [nM] | Ki (BCLXL) [nM] | IC50 (H146 cells) [nM] | SMILES
754 | < 1 | 710 | COCCCN(c1cc(C)c(Nc2nc3ccccc3s2)nn1)c1nc(C(=O)O)c(CCCOc2ccccc2F)s1 [Example 67, 2-({6-[(1,3-Benzothiazol-2-yl)amino]-5-methylpyridazin-3-yl}(3-methoxypropyl)amino)-5-[3-(2-fluorophenoxy)propyl]-1,3-thiazole-4-carboxylic acid]
3470 | 28 | 1990 | COCCCC1(Cn2ncc(-c3sc(Nc4nnc(Nc5nc6ccccc6s5)c(C)c4C)nc3C(=O)O)c2C)CCCCC1 [Example 36, 2-({6-[(1,3-benzothiazol-2-yl)amino]-4,5-dimethylpyridazin-3-yl}amino)-5-(1-{[1-(3-methoxypropyl)cyclohexyl]methyl}-5-methyl-1H-pyrazol-4-yl)-1,3-thiazole-4-carboxylic acid]
7390 | 15 | 11000 | CCN(c1cc(C)c(Nc2nc3ccccc3s2)nn1)c1nc(C(=O)O)cs1 [Example 37, 2-({6-[(1,3-Benzothiazol-2-yl)amino]-5-methylpyridazin-3-yl}(ethyl)amino)-1,3-thiazole-4-carboxylic acid]
8670 | 81 | > 15000 | CCOCc1c(Nc2nc(C(=O)O)cs2)nnc(Nc2nc3ccccc3s2)c1C [Example 30, 2-({6-[(1,3-Benzothiazol-2-yl)amino]-4-(ethoxymethyl)-5-methylpyridazin-3-yl}amino)-1,3-thiazole-4-carboxylic acid]
7130 | 990 | 3180 | O=C(O)c1cccc(Nc2nnc(Nc3nc4ccccc4s3)c3c2CCC3)n1 [Example 25, 6-[[4-(1,3-benzothiazol-2-ylamino)-6,7-dihydro-5H-cyclopenta[d]pyridazin-1-yl]amino]pyridine-2-carboxylic acid]
1620 | 27 | 913 | COCCCc1sc(Nc2nnc(Nc3nc4ccccc4s3)c(C)c2C)nc1C(=O)O [Example 12]
1020 | 4.7 | 2040 | COCCCC1(Cn2ncc(-c3sc(N(C)c4cc(C)c(Nc5nc6ccccc6s5)nn4)nc3C(=O)O)c2C)CCCCC1 [Example 42, 2-({6-[(1,3-Benzothiazol-2-yl)amino]-5-methylpyridazin-3-yl}(methyl)amino)-5-(1-{[1-(3-methoxypropyl)cyclohexyl]methyl}-5-methyl-1H-pyrazol-4-yl)-1,3-thiazole-4-carboxylic acid]
279 | 5.7 | 2600 | Cc1cc(N(C)c2nc(C(=O)O)c(N3CC(OCc4ccccc4)C3)s2)nnc1Nc1nc2ccccc2s1 [Example 68, 2-({6-[(1,3-Benzothiazol-2-yl)amino]-5-methylpyridazin-3-yl}(methyl)amino)-5-[3-(benzyloxy)azetidin-1-yl]-1,3-thiazole-4-carboxylic acid]
1490 | 20 | 3800 | Cc1cc(N(C)c2nc(C(=O)O)c(-c3cnn(CC45CC6CC(CC(C6)C4)C5)c3C)s2)nnc1Nc1nc2ccccc2s1 [Example 40, 5-{1-[(Adamantan-1-yl)methyl]-5-methyl-1H-pyrazol-4-yl}-2-({6-[(1,3-benzothiazol-2-yl)amino]-5-methylpyridazin-3-yl}(methyl)amino)-1,3-thiazole-4-carboxylic acid]
11700 | 14 | ≥ 11800 | CCCN(c1cc(C)c(Nc2nc3ccccc3s2)nn1)c1nc(C(=O)O)cs1 [Example 45, 2-({6-[(1,3-Benzothiazol-2-yl)amino]-5-methylpyridazin-3-yl}(propyl)amino)-1,3-thiazole-4-carboxylic acid]

From patent US12649733B2, “3,6-diamino-pyridazin-3-yl derivatives, pharmaceutical compositions containing them and their uses as pro-apoptotic agents” (LES LABORATOIRES SERVIER, priority 2019, dated 2026)
